Assay results reported in ChEMBL document CHEMBL1201862, “PubChem BioAssay data set” (2004).
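Cultured in 96-well plates, cells were exposed to test compound for 48 hours across five concentrations. Abbreviation: GI50, concentration required for 50% inhibition of growth.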 Calls of active or inactive are those of the source. Cut-off read from the data, not from the text of the source: active = GI50 up to about 1.1 µM and inactive = higher.

How the values were obtained:
Experiment in all cases: NCI tumour cell line growth inhibition, 48 h
[1] = test system: MDA-MB-231
[2] = test system: T47D
[3] = test system: MCF7
[4] = test system: NCI-H23
[5] = test system: HT-29
[6] = test system: PC-3
[7] = test system: M14
[8] = test system: TK-10
[9] = test system: OVCAR-4
[10] = test system: SN12C
[11] = test system: EKVX
[12] = test system: HOP-62
[13] = test system: CAKI-1
[14] = test system: LOX IMVI
[15] = test system: HOP-92
[16] = test system: UACC-257
[17] = test system: SR
[18] = test system: UACC-62
[19] = test system: NCI-H460
[20] = test system: U-251

SMILES	GI50 [1]	GI50 [2]	GI50 [3]	GI50 [4]	GI50 [5]	GI50 [6]	GI50 [7]	GI50 [8]	GI50 [9]	GI50 [10]	GI50 [11]	GI50 [12]	GI50 [13]	GI50 [14]	GI50 [15]	GI50 [16]	GI50 [17]	GI50 [18]	GI50 [19]	GI50 [20]
CCCCCC(=O)Nc1[nH]nnc1C(N)=O	> 100 µM (inactive)	> 100 µM (inactive)	> 100 µM (inactive)	> 100 µM (inactive)	> 100 µM (inactive)	> 100 µM (inactive)	> 100 µM (inactive)	> 100 µM (inactive)	> 100 µM (inactive)	> 100 µM (inactive)	> 100 µM (inactive)	> 100 µM (inactive)	> 100 µM (inactive)	> 100 µM (inactive)	92.5 µM (inactive)	> 100 µM (inactive)	> 100 µM (inactive)	> 100 µM (inactive)	> 100 µM (inactive)	> 100 µM (inactive)
CN(CCCNC(=O)c1cn(C)c2c1ccc1cc(Cl)c(Cl)cc12)CCCNC(=O)c1cn(C)c2c1ccc1cc(Cl)c(Cl)cc12	15.4 µM (inactive)	13.7 µM (inactive)	5.16 µM (inactive)	14.6 µM (inactive)	14.8 µM (inactive)	13.3 µM (inactive)	10.7 µM (inactive)	17.5 µM (inactive)	0.789 µM (active)	13.6 µM (inactive)	15.4 µM (inactive)	14.3 µM (inactive)	11.6 µM (inactive)	5.74 µM (inactive)	11.6 µM (inactive)	19.3 µM (inactive)	4.57 µM (inactive)	16.1 µM (inactive)	3.97 µM (inactive)	3.03 µM (inactive)
c1cc(CSSCc2ccncc2)ccn1	25.9 µM (inactive)	> 67.9 µM (inactive)	32.8 µM (inactive)	22 µM (inactive)	24.2 µM (inactive)	21.7 µM (inactive)	11.3 µM (inactive)	13.8 µM (inactive)	> 74.3 µM (inactive)	25.2 µM (inactive)	54.8 µM (inactive)	46.2 µM (inactive)	29.5 µM (inactive)	10.6 µM (inactive)	25.9 µM (inactive)	15.9 µM (inactive)	3.44 µM (inactive)	24.9 µM (inactive)	23.7 µM (inactive)	23.3 µM (inactive)
COc1ccccc1C1CC(=O)CC(c2ccccc2OC)C12C(=O)NC(=S)NC2=O (stereo not given)	38.4 µM (inactive)	58.5 µM (inactive)	46.8 µM (inactive)	> 100 µM (inactive)	73.8 µM (inactive)	90.6 µM (inactive)	88.3 µM (inactive)	> 100 µM (inactive)	99.8 µM (inactive)	65.8 µM (inactive)	> 100 µM (inactive)	> 100 µM (inactive)	68.9 µM (inactive)	33.1 µM (inactive)	43.3 µM (inactive)	88.3 µM (inactive)	53.7 µM (inactive)	> 100 µM (inactive)	54.5 µM (inactive)	> 100 µM (inactive)
O=C(c1ccc(Cl)cc1)c1cnc(Nc2ccccc2Cl)s1	41.4 µM (inactive)	19.3 µM (inactive)	31.5 µM (inactive)	22 µM (inactive)	27.1 µM (inactive)	24.4 µM (inactive)	19.7 µM (inactive)	18.5 µM (inactive)	33.4 µM (inactive)	22.3 µM (inactive)	22.9 µM (inactive)	25.1 µM (inactive)	17.3 µM (inactive)	36 µM (inactive)	27.2 µM (inactive)	21 µM (inactive)	> 100 µM (inactive)	21.5 µM (inactive)	25.3 µM (inactive)	28.1 µM (inactive)
CCOC(=O)C(O)Cc1cnc2ccccc2n1 (stereo not given)	> 100 µM (inactive)	> 100 µM (inactive)	80.7 µM (inactive)	> 100 µM (inactive)	> 100 µM (inactive)	> 100 µM (inactive)	> 100 µM (inactive)	> 100 µM (inactive)	> 100 µM (inactive)	> 100 µM (inactive)	73.5 µM (inactive)	> 100 µM (inactive)	> 100 µM (inactive)	> 100 µM (inactive)	> 100 µM (inactive)	> 100 µM (inactive)	> 100 µM (inactive)	> 100 µM (inactive)	92.3 µM (inactive)	> 100 µM (inactive)
CC1(c2cccc(C(F)(F)F)c2)CC(c2cccc(C(F)(F)F)c2)=C(C#N)C(=C(C#N)C#N)N1 (stereo not given)	23 µM (inactive)	17 µM (inactive)	16.7 µM (inactive)	19.3 µM (inactive)	18.8 µM (inactive)	19.4 µM (inactive)	20.2 µM (inactive)	16.8 µM (inactive)	16 µM (inactive)	18.1 µM (inactive)	17.9 µM (inactive)	17.1 µM (inactive)	18.7 µM (inactive)	17.7 µM (inactive)	2.3 µM (inactive)	15.9 µM (inactive)	12.6 µM (inactive)	16.7 µM (inactive)	19.3 µM (inactive)	18.4 µM (inactive)
